In patent publication EP4725957A1, “GROUP OF CYCLIC ALKALINE LIPOPEPTIDE COMPOUNDS, AND PREPARATION METHOD THEREFOR AND USE THEREOF” (Institute of Medicinal Biotechnology, Chinese Academy of …, priority 2023, dated 2024):
In brackets after ≈: the same amount, converted by molar mass. Read-outs that look alike come from different tables or passages of the source. Bridge positions count the residues as written; N and C are the ends. Square brackets hold non-standard residues; d marks the D form. Peptide text beside a SMILES is read from it. * marks the point of attachment. Heptanoyl(6-Me) = CC(C)CCCCC(=O)*; Nonanoyl = CCCCCCCCC(=O)*; X1 = CC[C@H](C)CCCCC(=O)*; Heptanoyl = CCCCCCC(=O)*; Octanoyl = CCCCCCCC(=O)*; Orn = NCCC[C@H](N)C(=O)O; Dab = NCC[C@H](N)C(=O)O; Dap = NC[C@H](N)C(=O)O

Key:
Type in all cases: cell-based
[1] = system: Escherichia coli ATCC BAA-2523
Summary of the method: (§1)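 In this CLSI-based assay, serially halved compound (final 64–0.03 mg/L) was exposed to (2-4) × 10^5 CFU/mL bacteria in MH broth at 35-37°C for 16-20 h. The readout was the MIC.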

[2] = system: Pseudomonas aeruginosa ATCC 27853
Summary of the method: as §1

[3] = system: Klebsiella pneumoniae KPN+19-15
Summary of the method: as §1

[4] = system: Acinetobacter baumannii NCTC 13304 (OXA-27)
Summary of the method: as §1

[5] = system: Klebsiella pneumoniae ATCC BAA-1705 (KPC)
Summary of the method: as §1

[6] = system: Pseudomonas aeruginosa PAE19-3
Summary of the method: as §1

[7] = system: Acinetobacter baumannii ABA19-1
Summary of the method: as §1

[8] = system: Escherichia coli ATCC BAA-2340 (KPC)
Summary of the method: as §1

[9] = Nephrotoxicity assay: in vitro cytotoxicity of HK-2 cells by CCK-8 assay; conditions: human, HK-2 cells (human renal), 72 h incubation with drug-containing medium
Summary of the method: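 Compounds in sterile water, diluted to final 500, 250, 200, 100, 50, 25 and 12.5 µg/mL, were applied for 72 h to human HK-2 kidney cells. Absorbance at 450 nm after 3 h CCK-8 gave viability against untreated wells, and IC50 came from logarithmic regression; three replicates.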

SMILES	MIC ([1]; ATCC BAA-2523) [mg/L]	MIC ([2]; ATCC 27853) [mg/L]	MIC ([3]; KPN+19-15) [mg/L]	MIC ([4]; NCTC 13304) [mg/L]	MIC ([5]; ATCC BAA-1705) [mg/L]	MIC ([6]; PAE19-3) [mg/L]	MIC ([7]; ABA19-1) [mg/L]	MIC ([8]; ATCC BAA-2340) [mg/L]	IC50 at 72 h [9] [mg/L]	MIC ([1]; Escherichia coli ATCC BAA-2523) [mg/L]	MIC ([2]; Pseudomonas aeruginosa ATCC27853) [mg/L]	MIC ([3]; Klebsiella pneumoniae KPN 19-15) [mg/L]	MIC ([4]; Acinetobacter baumannii NCTC 13304 (OXA-27)) [mg/L]	MIC ([5]; Klebsiella pneumoniae ATCC BAA-1705 (KPC)) [mg/L]	MIC ([6]; Pseudomonas aeruginosa PAE19-3) [mg/L]	MIC ([7]; Acinetobacter baumannii ABA19-1) [mg/L]	MIC ([8]; Escherichia coli ATCC BAA-2340 (KPC)) [mg/L]
CCCCCCCCC(=O)N[C@@H](CN)C(=O)N[C@H](C(=O)N[C@H](CO)C(=O)N[C@H]1CCNC(=O)[C@H]([C@@H](C)O)NC(=O)[C@H](CCN)NC(=O)[C@H](CCN)NC(=O)[C@H]([C@@H](C)O)NC(=O)[C@@H](Cc2ccccc2)NC(=O)[C@H](CCN)NC1=O)[C@@H](C)O [Compound 55, Nonanoyl-Dap-Thr-D-Ser-ring(4-10)[Dab-Dab-D-Phe-Thr-Dab-Dab-Thr]] (Nonanoyl-[Dap]T[dS][Dab][Dab][dF]T[Dab][Dab]T; lactam 4-C)	0.03 (≈ 0.0258 µM)	64 (≈ 55 µM)	0.5 (≈ 0.429 µM)	0.25 (≈ 0.215 µM)	0.25 (≈ 0.215 µM)	8 (≈ 6.87 µM)	0.25 (≈ 0.215 µM)	0.03 (≈ 0.0258 µM)	300 ± 10.8 (≈ 258 µM)								
CC[C@H](C)CCCCC(=O)N[C@@H](CCCN)C(=O)N[C@H](C(=O)N[C@H](CO)C(=O)N[C@H]1CCNC(=O)[C@H]([C@@H](C)O)NC(=O)[C@H](CCN)NC(=O)[C@H](CCN)NC(=O)[C@H]([C@@H](C)O)NC(=O)[C@@H](Cc2ccccc2)NC(=O)[C@H](CCN)NC1=O)[C@@H](C)O [Compound 56, (S)-6-methyloctanoyl-Orn-Thr-D-Ser-ring(4-10)[Dab-Dab-D-Phe-Thr-Dab-Dab-Thr]] (X1-[Orn]T[dS][Dab][Dab][dF]T[Dab][Dab]T; lactam 4-C)	0.125 (≈ 0.105 µM)	64 (≈ 53.7 µM)	0.5 (≈ 0.419 µM)	0.25 (≈ 0.21 µM)	0.25 (≈ 0.21 µM)	4 (≈ 3.35 µM)	0.25 (≈ 0.21 µM)	0.125 (≈ 0.105 µM)	> 500								
CC(C)CCCCC(=O)N[C@@H](CCCN)C(=O)N[C@H](C(=O)N[C@H](CO)C(=O)N[C@H]1CCNC(=O)[C@H]([C@@H](C)O)NC(=O)[C@H](CCN)NC(=O)[C@H](CCN)NC(=O)[C@H]([C@@H](C)O)NC(=O)[C@@H](Cc2ccccc2)NC(=O)[C@H](CCN)NC1=O)[C@@H](C)O [Compound 57, 6-methylheptanoyl-Orn-Thr-D-Ser-ring(4-10)[Dab-Dab-D-Phe-Thr-Dab-Dab-Thr]] ({Heptanoyl(6-Me)}-[Orn]T[dS][Dab][Dab][dF]T[Dab][Dab]T; lactam 4-C)	0.125 (≈ 0.106 µM)	64 (≈ 54.3 µM)	0.5 (≈ 0.424 µM)	0.25 (≈ 0.212 µM)	0.25 (≈ 0.212 µM)	4 (≈ 3.39 µM)	0.25 (≈ 0.212 µM)	0.125 (≈ 0.106 µM)	> 500								
CCCCCCCC(=O)N[C@@H](CCCN)C(=O)N[C@H](C(=O)N[C@H](CO)C(=O)N[C@H]1CCNC(=O)[C@H]([C@@H](C)O)NC(=O)[C@H](CCN)NC(=O)[C@H](CCN)NC(=O)[C@H]([C@@H](C)O)NC(=O)[C@@H](Cc2ccccc2)NC(=O)[C@H](CCN)NC1=O)[C@@H](C)O [Compound 58, Octanoyl-Orn-Thr-D-Ser-ring(4-10)[Dab-Dab-D-Phe-Thr-Dab-Dab-Thr]] (Octanoyl-[Orn]T[dS][Dab][Dab][dF]T[Dab][Dab]T; lactam 4-C)	0.125 (≈ 0.106 µM)	64 (≈ 54.3 µM)	0.5 (≈ 0.424 µM)	0.25 (≈ 0.212 µM)	0.25 (≈ 0.212 µM)	4 (≈ 3.39 µM)	0.25 (≈ 0.212 µM)	0.125 (≈ 0.106 µM)	> 500								
CCCCCCC(=O)N[C@@H](CCCN)C(=O)N[C@H](C(=O)N[C@H](CO)C(=O)N[C@H]1CCNC(=O)[C@H]([C@@H](C)O)NC(=O)[C@H](CCN)NC(=O)[C@H](CCN)NC(=O)[C@H]([C@@H](C)O)NC(=O)[C@@H](Cc2ccccc2)NC(=O)[C@H](CCN)NC1=O)[C@@H](C)O [Compound 59, Heptanoyl-Orn-Thr-D-Ser-ring(4-10)[Dab-Dab-D-Phe-Thr-Dab-Dab-Thr]] (Heptanoyl-[Orn]T[dS][Dab][Dab][dF]T[Dab][Dab]T; lactam 4-C)	0.25 (≈ 0.215 µM)	64 (≈ 55 µM)	0.5 (≈ 0.429 µM)	0.25 (≈ 0.215 µM)	0.25 (≈ 0.215 µM)	8 (≈ 6.87 µM)	0.25 (≈ 0.215 µM)	0.25 (≈ 0.215 µM)	> 500								
CCCCCCCCC(=O)N[C@@H](CCCN)C(=O)N[C@H](C(=O)N[C@H](CO)C(=O)N[C@H]1CCNC(=O)[C@H]([C@@H](C)O)NC(=O)[C@H](CCN)NC(=O)[C@H](CCN)NC(=O)[C@H]([C@@H](C)O)NC(=O)[C@@H](Cc2ccccc2)NC(=O)[C@H](CCN)NC1=O)[C@@H](C)O [Compound 60, Nonanoyl-Orn-Thr-D-Ser-ring(4-10)[Dab-Dab-D-Phe-Thr-Dab-Dab-Thr]] (Nonanoyl-[Orn]T[dS][Dab][Dab][dF]T[Dab][Dab]T; lactam 4-C)	0.25 (≈ 0.21 µM)	64 (≈ 53.7 µM)	0.5 (≈ 0.419 µM)	0.25 (≈ 0.21 µM)	0.25 (≈ 0.21 µM)	8 (≈ 6.71 µM)	0.25 (≈ 0.21 µM)	0.25 (≈ 0.21 µM)	281 ± 9.5 (≈ 235 µM)								
CC[C@H](C)CCCCC(=O)N[C@@H](CCN)C(=O)N[C@H](C(=O)N[C@H](CO)C(=O)N[C@H]1CCNC(=O)[C@H]([C@@H](C)O)NC(=O)[C@H](CCN)NC(=O)[C@H](CCN)NC(=O)[C@H]([C@@H](C)O)NC(=O)[C@@H](Cc2ccccc2)NC(=O)[C@H](CN)NC1=O)[C@@H](C)O [Compound 61, (S)-6-methyloctanoyl-Dab-Thr-D-Ser-ring(4-10)[Dab-Dap-D-Phe-Thr-Dab-Dab-Thr]] (X1-[Dab]T[dS][Dab][Dap][dF]T[Dab][Dab]T; lactam 4-C)									> 500	0.06 (≈ 0.0515 µM)	64 (≈ 55 µM)	0.5 (≈ 0.429 µM)	0.25 (≈ 0.215 µM)	0.25 (≈ 0.215 µM)	4 (≈ 3.44 µM)	0.25 (≈ 0.215 µM)	0.06 (≈ 0.0515 µM)
CC(C)CCCCC(=O)N[C@@H](CCN)C(=O)N[C@H](C(=O)N[C@H](CO)C(=O)N[C@H]1CCNC(=O)[C@H]([C@@H](C)O)NC(=O)[C@H](CCN)NC(=O)[C@H](CCN)NC(=O)[C@H]([C@@H](C)O)NC(=O)[C@@H](Cc2ccccc2)NC(=O)[C@H](CN)NC1=O)[C@@H](C)O [Compound 62, 6-methylheptanoyl-Dab-Thr-D-Ser-ring(4-10)[Dab-Dap-D-Phe-Thr-Dab-Dab-Thr]] ({Heptanoyl(6-Me)}-[Dab]T[dS][Dab][Dap][dF]T[Dab][Dab]T; lactam 4-C)	0.06 (≈ 0.0522 µM)	64 (≈ 55.6 µM)	0.5 (≈ 0.435 µM)	0.25 (≈ 0.217 µM)	0.25 (≈ 0.217 µM)	4 (≈ 3.48 µM)	0.25 (≈ 0.217 µM)	0.06 (≈ 0.0522 µM)	> 500								
CCCCCCCC(=O)N[C@@H](CCN)C(=O)N[C@H](C(=O)N[C@H](CO)C(=O)N[C@H]1CCNC(=O)[C@H]([C@@H](C)O)NC(=O)[C@H](CCN)NC(=O)[C@H](CCN)NC(=O)[C@H]([C@@H](C)O)NC(=O)[C@@H](Cc2ccccc2)NC(=O)[C@H](CN)NC1=O)[C@@H](C)O [Compound 63, Octanoyl-Dab-Thr-D-Ser-ring(4-10)[Dab-Dap-D-Phe-Thr-Dab-Dab-Thr]] (Octanoyl-[Dab]T[dS][Dab][Dap][dF]T[Dab][Dab]T; lactam 4-C)	0.125 (≈ 0.109 µM)	64 (≈ 55.6 µM)	0.5 (≈ 0.435 µM)	0.25 (≈ 0.217 µM)	0.25 (≈ 0.217 µM)	4 (≈ 3.48 µM)	0.25 (≈ 0.217 µM)	0.125 (≈ 0.109 µM)	> 500								
